What all share (assay type): cell-based
The target in assay [1] is Melanocyte-stimulating hormone receptor (Mus musculus, UniProt Q01727). In words: Agonist activity at mouse MC1R expressed in HEK293 cells by cAMP functional bioassay.
The target of assay [2] is Melanocortin receptor 3 (Mus musculus, UniProt P33033). Nature of the assay: Displacement of MTII from mouse MC3R expressed in HEK293 cells. As to conditions: for Kb: read-out: pA2 (converted); call rule not given here.
For assay [3], the target named is Melanocortin receptor 4 (Mus musculus, UniProt P56450). In words: Displacement of MTII from mouse MC4R expressed in HEK293 cells. The following applies: for Kb: read-out: pA2 (converted).
Sequence of Melanocortin receptor 4 (P56450 whole entry): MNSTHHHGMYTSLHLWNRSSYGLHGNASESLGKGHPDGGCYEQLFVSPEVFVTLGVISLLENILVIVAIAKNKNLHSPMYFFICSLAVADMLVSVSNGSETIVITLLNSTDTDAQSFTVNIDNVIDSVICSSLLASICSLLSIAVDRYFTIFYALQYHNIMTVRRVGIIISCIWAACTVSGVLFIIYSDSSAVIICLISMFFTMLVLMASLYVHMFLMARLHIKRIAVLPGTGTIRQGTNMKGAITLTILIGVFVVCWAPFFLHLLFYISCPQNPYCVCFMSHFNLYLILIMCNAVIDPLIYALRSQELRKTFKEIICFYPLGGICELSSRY
For assay [4], the target named is Melanocyte-stimulating hormone receptor (Mus musculus) (UniProt Q01727). In words: Agonist activity at mouse MC1R expressed in HEK293 cells at 100 uM by cAMP functional bioassay.
Sequence of Melanocyte-stimulating hormone receptor (Mus musculus) (Q01727 whole entry, looked up): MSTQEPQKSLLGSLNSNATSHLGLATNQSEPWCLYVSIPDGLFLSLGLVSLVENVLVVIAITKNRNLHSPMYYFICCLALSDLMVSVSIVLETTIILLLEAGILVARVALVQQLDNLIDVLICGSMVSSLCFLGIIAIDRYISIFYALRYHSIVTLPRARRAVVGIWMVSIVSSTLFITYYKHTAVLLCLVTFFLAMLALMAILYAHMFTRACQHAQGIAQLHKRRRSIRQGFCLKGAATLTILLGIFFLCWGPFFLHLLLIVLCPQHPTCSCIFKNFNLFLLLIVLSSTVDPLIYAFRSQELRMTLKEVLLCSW

Where a SMILES comes first, the peptide text is derived from it. Bridges are numbered along the chain shown (N, C = ends). [ ]: non-standard residue; d: D form. Bip = N[C@@H](Cc1ccc(-c2ccccc2)cc1)C(=O)O; 1Nal = N[C@@H](Cc1cccc2ccccc12)C(=O)O

Sequence of Melanocyte-stimulating hormone receptor (Q01727 whole entry): as the sequence (Q01727 whole entry, looked up) above
Sequence of Melanocortin receptor 3 (P33033 whole entry): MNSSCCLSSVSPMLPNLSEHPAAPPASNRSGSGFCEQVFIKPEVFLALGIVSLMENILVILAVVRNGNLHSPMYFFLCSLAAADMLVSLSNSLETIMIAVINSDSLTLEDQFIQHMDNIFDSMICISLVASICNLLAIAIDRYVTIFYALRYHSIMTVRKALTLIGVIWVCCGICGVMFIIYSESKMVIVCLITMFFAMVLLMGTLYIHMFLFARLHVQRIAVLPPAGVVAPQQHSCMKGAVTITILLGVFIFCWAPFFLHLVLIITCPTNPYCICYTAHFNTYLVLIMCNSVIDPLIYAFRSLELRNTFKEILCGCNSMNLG

The term EC50 denotes the midpoint of the concentration-response curve. Read a low EC50 as higher potency in that assay. With `C[C@@H]1NC(=O)[C@H](CC(N)=O)NC(=O)[C@H](Cc2ccccc2)NC(=O)[C@H](Cc2ccccc2)NC(=O)[C@H](CCCNC(=N)N)NC(=O)[C@H]([C@@H](C)O)NC(=O)[C@H](Cc2ccc(O)cc2)NC(=O)[C@@H]2CCCN2C(=O)[C@H]2CCCN2C(=O)[C@H](Cc2ccc(O)cc2)NC(=O)[C@H]([C@@H](C)O)NC(=O)[C@H](Cc2ccccc2)NC1=O` (cyclo(YTRFFNAFTY[dP]P)), the response in assay [1] was half-maximal at 11600 nM (EC50). Besides, the Kb in assay [2] is 1260 nM; in assay [3] it was 158 nM.

One may read the Ki as the dissociation constant of the complex between target and ligand, obtained from inhibition or displacement. Lower therefore signals higher affinity. As for `C[C@@H]1NC(=O)[C@H](CCCCN)NC(=O)[C@H](Cc2ccccc2)NC(=O)[C@H](Cc2ccccc2)NC(=O)[C@H](CCCNC(=N)N)NC(=O)[C@@H]2CCCN2C(=O)[C@H]2CCCN2C(=O)[C@H](Cc2ccccc2)NC1=O`, the Ki in assay [2] was found to be 100 nM; in assay [3], 5 nM. Also, the values for the Kb in assay [2] and in assay [3] were 100 nM and 5.01 nM, respectively.

In turn, `C[C@@H]1NC(=O)[C@H](CC(N)=O)NC(=O)[C@H](Cc2ccccc2)NC(=O)[C@H](c2ccccc2)NC(=O)[C@H](CCCNC(=N)N)NC(=O)[C@@H]2CCCN2C(=O)[C@H]2CCCN2C(=O)[C@H](Cc2ccccc2)NC1=O` showed an EC50 in assay [1] (hek293) of 13600 nM.

As to `C[C@H](NC(=O)[C@H](Cc1ccc(O)cc1)NC(=O)[C@@H]1CSSC[C@H](NC(=O)[C@H](Cc2ccc(O)cc2)NC(=O)[C@H](C)NC(=O)[C@@H](N)[C@@H](C)O)C(=O)N[C@@H](CCCNC(=N)N)C(=O)N[C@@H](Cc2ccccc2)C(=O)N[C@@H](Cc2ccccc2)C(=O)N[C@@H](CC(N)=O)C(=O)N[C@@H](C)C(=O)N[C@@H](Cc2ccccc2)C(=O)N1)C(=O)N[C@@H](CCCNC(=N)N)C(N)=O` (H-TAYCRFFNAFCYAR-NH2; disulfide 4-11), in assay [2], the Kb is 794 nM.

What is called pA2 is a measure of antagonist potency on a negative log scale. High values mean higher antagonist potency, low ones lower antagonist potency. Compound `C[C@@H]1NC(=O)[C@H](CC(N)=O)NC(=O)[C@H](Cc2ccccc2)NC(=O)[C@H](CCc2ccccc2)NC(=O)[C@H](CCCNC(=N)N)NC(=O)[C@@H]2CCCN2C(=O)[C@H]2CCCN2C(=O)[C@H](Cc2ccccc2)NC1=O` showed an EC50 in assay [1] (hek293) of 1500 nM. Further, in assay [3] (hek293), the affinity, expressed as Ki, was 100 nM and the pA2 is given as 7.

Turning to `CC(=O)N[C@H](C(=O)N[C@H]1CSSC[C@@H](C(=O)N[C@@H](CCCNC(=N)N)C(N)=O)NC(=O)[C@H](Cc2ccc(O)cc2)NC(=O)[C@@H]2CSSC[C@H](NC(=O)[C@H](Cc3ccc(O)cc3)NC1=O)C(=O)N[C@@H](CCCNC(=N)N)C(=O)N[C@@H](Cc1ccccc1)C(=O)N[C@@H](Cc1ccccc1)C(=O)N[C@@H](CC(N)=O)C(=O)N[C@@H](C)C(=O)N[C@@H](Cc1ccccc1)C(=O)N2)[C@@H](C)O`, the Kb in assay [3] was 63.1 nM.

In assay [1] (hek293), `C[C@@H]1NC(=O)[C@H](CC(N)=O)NC(=O)[C@H](Cc2ccc3ccccc3c2)NC(=O)[C@H](Cc2ccccc2)NC(=O)[C@H](CCCNC(=N)N)NC(=O)[C@@H]2CCCN2C(=O)[C@H]2CCCN2C(=O)[C@H](Cc2ccccc2)NC1=O` registered a concentration for a half-maximal effect (EC50) of 19600 nM. In assay [3] (hek293), this compound gave a Ki of 63 nM and a pA2 of 7.2.

Consider `C[C@@H]1NC(=O)[C@H](CC(N)=O)NC(=O)[C@H](Cc2ccccc2)NC(=O)[C@H](Cc2ccc3ccccc3c2)NC(=O)[C@H](CCCNC(=N)N)NC(=O)[C@@H]2CCCN2C(=O)[C@H]2CCCN2C(=O)[C@H](Cc2ccccc2)NC1=O`, for which the EC50 in assay [1] (hek293) was 8800 nM. In assay [3] (hek293), this compound yielded a Ki of 100 nM and a pA2 of 7.

In assay [1] (hek293), `C[C@@H]1NC(=O)[C@H](CC(N)=O)NC(=O)[C@H](Cc2cccc3ccccc23)NC(=O)[C@H](Cc2ccccc2)NC(=O)[C@H](CCCNC(=N)N)NC(=O)[C@@H]2CCCN2C(=O)[C@H]2CCCN2C(=O)[C@H](Cc2ccccc2)NC1=O` yielded a 50% effective concentration (EC50) of 12700 nM. Also, in assay [3] (hek293), the affinity corresponds to a Ki of 16 nM and the pA2 was found to be 7.8.

In assay [1], `C[C@@H]1NC(=O)[C@H](CC(N)=O)NC(=O)[C@H](Cc2ccc(-c3ccccc3)cc2)NC(=O)[C@H](Cc2ccccc2)NC(=O)[C@H](CCCNC(=N)N)NC(=O)[C@@H]2CCCN2C(=O)[C@H]2CCCN2C(=O)[C@H](Cc2ccccc2)NC1=O` yielded a 50% effective concentration (EC50) of 500 nM. In addition, in assay [3], affinity was put at a Ki of 160 nM and the Kb was 158 nM.

Turning to `CC(=O)N[C@H]1CSSC[C@@H](C(N)=O)NC(=O)[C@H](Cc2ccccc2)NC(=O)[C@H](C)NC(=O)[C@H](CC(N)=O)NC(=O)[C@H](Cc2ccccc2)NC(=O)[C@H](Cc2ccccc2)NC(=O)[C@H](CCCNC(=N)N)NC1=O`, the IC50 entry in assay [3] (hek293) was “Not Active”.

Turning to `C[C@@H]1NC(=O)[C@H](CC(N)=O)NC(=O)[C@H](Cc2ccccc2)NC(=O)[C@H](Cc2ccccc2)NC(=O)[C@H](CCCNC(=N)N)NC(=O)[C@@H]2CCCN2C(=O)[C@H]2CCCN2C(=O)[C@H](Cc2ccccc2)NC1=O`, in assay [1], the half-maximal effective concentration (EC50) stood at 4500 nM.

Consider `C[C@@H]1NC(=O)[C@H](CC(N)=O)NC(=O)[C@H](Cc2ccccc2)NC(=O)C(Cc2ccc3ccccc3c2)NC(=O)[C@H](CCCNC(=N)N)NC(=O)[C@@H]2CCCN2C(=O)[C@H]2CCCN2C(=O)[C@H](Cc2ccccc2)NC1=O` (stereo not given in full), for which, in assay [2], the inhibition constant (Ki) is 1000 nM and the Kb was 1000 nM.

For the compound `C[C@@H]1NC(=O)[C@H](CC(N)=O)NC(=O)[C@H](CCc2ccccc2)NC(=O)[C@H](Cc2ccccc2)NC(=O)[C@H](CCCNC(=N)N)NC(=O)[C@@H]2CCCN2C(=O)[C@H]2CCCN2C(=O)[C@H](Cc2ccccc2)NC1=O`, the EC50 in assay [1] (hek293) was determined as 20300 nM.

Regarding `C[C@@H]1NC(=O)C(CCCN)NC(=O)[C@H](Cc2ccccc2)NC(=O)[C@H](Cc2ccccc2)NC(=O)[C@H](CCCNC(=N)N)NC(=O)[C@@H]2CCCN2C(=O)[C@H]2CCCN2C(=O)[C@H](Cc2ccccc2)NC1=O` (stereo not given in full), in assay [2], the Ki amounted to 160 nM and the Kb is 158 nM. Moreover, in assay [4], the Activity amounted to 30%.

Turning to `C[C@@H]1NC(=O)C(CCN)NC(=O)[C@H](Cc2ccccc2)NC(=O)[C@H](Cc2ccccc2)NC(=O)[C@H](CCCNC(=N)N)NC(=O)[C@@H]2CCCN2C(=O)[C@H]2CCCN2C(=O)[C@H](Cc2ccccc2)NC1=O` (stereo not given in full), in assay [2], the Ki worked out at 100 nM and the Kb was 100 nM. The Activity in assay [4] turned out to be 50%.

Take `C[C@@H]1NC(=O)[C@H](CC(N)=O)NC(=O)[C@H](c2ccccc2)NC(=O)[C@H](Cc2ccccc2)NC(=O)[C@H](CCCNC(=N)N)NC(=O)[C@@H]2CCCN2C(=O)[C@H]2CCCN2C(=O)[C@H](Cc2ccccc2)NC1=O`: in assay [1] (hek293), a half-maximal response (EC50) required 21000 nM. In assay [3] (hek293), affinity was put at a Ki of 1300 nM and the pA2 came to 5.9.

Take `CC(=O)N[C@H](C(=O)N[C@H]1CSSC[C@@H](C(=O)N[C@@H](CCCNC(=N)N)C(N)=O)NC(=O)[C@H](Cc2ccc(O)cc2)NC(=O)[C@H]2CSSC[C@H](NC(=O)[C@H](Cc3ccc(O)cc3)NC1=O)C(=O)N[C@@H](CCCNC(=N)N)C(=O)N[C@@H](Cc1ccccc1)C(=O)N[C@@H](Cc1ccccc1)C(=O)N[C@@H](CC(N)=O)C(=O)N[C@@H](C)C(=O)N[C@@H](Cc1ccccc1)C(=O)N2)[C@@H](C)O`: in assay [2], the Kb was 631 nM.

With `C[C@@H]1NC(=O)C(CN)NC(=O)[C@H](Cc2ccccc2)NC(=O)[C@H](Cc2ccccc2)NC(=O)[C@H](CCCNC(=N)N)NC(=O)[C@@H]2CCCN2C(=O)[C@H]2CCCN2C(=O)[C@H](Cc2ccccc2)NC1=O` (stereo not given in full), in assay [2], the affinity corresponds to a Ki of 130 nM and the Kb was 126 nM. Also, in assay [4], the Activity turned out to be 75%.

Take `C[C@@H]1NC(=O)CNC(=O)[C@H](Cc2ccccc2)NC(=O)[C@H](Cc2ccccc2)NC(=O)[C@H](CCCNC(=N)N)NC(=O)[C@@H]2CCCN2C(=O)[C@H]2CCCN2C(=O)[C@H](Cc2ccccc2)NC1=O`: in assay [2], the affinity corresponds to a Ki of 25 nM and the Kb was 25.1 nM. In assay [4], this compound gave an Activity of 50%. For the same compound, in assay [3], the affinity, expressed as Ki, was 4 nM and the Kb is 3.98 nM.

With `C[C@@H]1NC(=O)[C@H](Cc2ccccc2)NC(=O)[C@H](C)NC(=O)[C@H](CC(N)=O)NC(=O)[C@H](Cc2ccccc2)NC(=O)[C@H](Cc2ccccc2)NC(=O)[C@H](CCCNC(=N)N)NC(=O)[C@H](C)NC(=O)[C@H](Cc2ccc(O)cc2)NC(=O)[C@@H]2CCCN2C(=O)[C@H]2CCCN2C(=O)[C@H](Cc2ccc(O)cc2)NC1=O`, in assay [1], the EC50 amounted to 17600 nM.

`C[C@@H]1NC(=O)[C@H](CC(N)=O)NC(=O)[C@H](Cc2ccccc2)NC(=O)[C@H](Cc2ccc(-c3ccccc3)cc2)NC(=O)[C@H](CCCNC(=N)N)NC(=O)[C@@H]2CCCN2C(=O)[C@H]2CCCN2C(=O)[C@H](Cc2ccccc2)NC1=O` (cyclo(R[Bip]FNAF[dP]P)) displayed an EC50 in assay [1] of 800 nM. In assay [2], the Ki was 630 nM and the Kb was 631 nM. In assay [3], affinity was put at a Ki of 160 nM and the Kb was 158 nM.

Turning to `C[C@@H]1NC(=O)[C@H](CC(N)=O)NC(=O)[C@@H]2Cc3ccccc3CN2C(=O)[C@H](Cc2ccccc2)NC(=O)[C@H](CCCNC(=N)N)NC(=O)[C@@H]2CCCN2C(=O)[C@H]2CCCN2C(=O)[C@H](Cc2ccccc2)NC1=O`, the half-maximal effective concentration (EC50) in assay [1] (hek293) was 3900 nM.

`C[C@@H]1NC(=O)[C@H](CC(N)=O)NC(=O)[C@H](Cc2ccccc2)NC(=O)[C@H](Cc2cccc3ccccc23)NC(=O)[C@H](CCCNC(=N)N)NC(=O)[C@@H]2CCCN2C(=O)[C@H]2CCCN2C(=O)[C@H](Cc2ccccc2)NC1=O` (cyclo(R[1Nal]FNAF[dP]P)) showed an EC50 in assay [1] (hek293) of 2500 nM. Besides, in assay [3] (hek293), the Ki worked out at 16 nM and the pA2 turned out to be 7.8.

Turning to `C[C@@H]1NC(=O)[C@H](CC(N)=O)NC(=O)C(Cc2cccc3ccccc23)NC(=O)[C@H](Cc2ccccc2)NC(=O)[C@H](CCCNC(=N)N)NC(=O)[C@@H]2CCCN2C(=O)[C@H]2CCCN2C(=O)[C@H](Cc2ccccc2)NC1=O` (stereo not given in full), in assay [2], the inhibition constant Ki stood at 2500 nM and the Kb was 2510 nM.

(Values after ChEMBL document CHEMBL3576802 (J Med Chem, 2015).)
